In US6780984B2, “Method for prognosing cancer and the proteins involved” (Northwestern University, priority 2000, dated 2004):

Tests used:
[1] = tested on: PC3 cells; test: Apoptosis induction by GFP fusion constructs transfected into PC3 cells; format: cell-based, human; conditions: for role of domain in apoptosis induction: domain mapping / deletion mutagenesis, GFP fusions; for cells expressing the GFP fusion protein: 10 days in medium including 500 μg/ml geneticin (G418)
Protocol: (§1) FIGS. 16a-16c show the apoptosis induction by TRAITS activation. […] The GFP-TRAITS-ER protein is localized primarily in cytoplasm in the absence of OHT, as visualized under green fluorescent microscope. The fusion protein was translocated into nuclei 24 hours after treatment of the cells with 300 nM OHT and then condensed in the fragmented nuclei 48 hours after the OHT treatment. The condensed and fragmented nuclei of the OHT-treated PC3 cells were then visualized by Hoechst staining. […] The PC3 cells were cultured in the absence or presence of 300 nM OHT for 72 hours prior to FACS analysis. The figure represents one of the 3 different experiments.
(§2) Vector constructions and mutagenesis: The cDNAs of rat and human TRAITS were cloned into pEGFP C1, pEGFP N3, PM and pIRES2-EGFP(Clontech) by PCR. Deletion mutagenesis of TRAITS were generated by PCR and cloned into above first three vectors. The plasmids containing ER™ domain were kindly provided by G. Evan (UCSF, San Francisco). ER™ domain was cut with BamHI/EcoRI and recloned into pEGFP-TRAITS to generate a tripartite fusion protein. All constructions were verified by sequencing and transfected using Lipofectamine (Gibco), Super Fect reagent (Qiagen) or Fugene 6 (Roche). In stable transfection, 500 μg/ml geneticin (G418) was used for selection of positive clones.
Genomic structure and mutagenesis of TRAITS: TRAITS is composed of six exons (FIG. 18) which in humans encode respectively, 35 amino acid residues, 32 amino acid residues, 46 amino acid residues, 48 amino acid residues, 85 amino acid residues, and 14 amino acid residues (see FIG. 14a for exon junctions). In an effort to determine the role of individual domains, domain mapping was performed by fusing nucleic acids encoding GFP to nucleic acids encoding fragments of the TRAITS in pEGFPN3 vectors. The vectors was then used for transient and stable transfection of PC3 cells. The ability of the various constructs to induce apoptosis was determined.

[2] = tested on: PC3 cells transfected with the tripartite fusion protein; test: FACS analysis of annexin V staining; format: cell-based, human; conditions: 300 nM OHT for 72 hours, cells expressing GFP-TRAITS-ER
Protocol: as §1
(§3) Cell death assays flow cytometry analysis: In flow cytometry analysis, cells cultured under the indicated conditions were harvested for staining with the TACS™ Annexin V-Biotin apoptosis detection kit (R & D systems). Propidium iodide was used for nuclei staining and Cy5 was conjugated to Annexin V-biotin. Apoptosis of Annexin V-positive cells was analyzed by FACS. Hoechst 33342 (Molecular Probes) was used for nuclear condensate staining and DNA fragmentation assay.

[3] = tested on: AT6.1 xenograft prostate tumor; test: AT6.1 prostatic xenograft tumor growth in nude mice; format: in vivo
Description: The tamoxifen pellets were implanted at the time of AT6.1 cell injection. The error bars represent S.E.M. The tamoxifen inhibition of AT6.1 tumor growth was statistically significant (p<0.005) at every time point of tumor measurement. […] The loading of total RNA was visualized by methylene blue staining. FIG. 17c is the northern blot analysis of TRAITS expression in rat prostatic tissues and cancer cell lines. The loading of total RNA was visualized by methylene blue staining. […] Affinity purified anti-human TRAITS polyclonal antibody was used in immunostaining of radical prostatectomy specimens from 8 patients with advanced prostate cancer (Gleason-score 7 to −10). […] A typical TRAITS down-regulation was shown with 20× objective (left) and the boxed area shown at high magnification (middle). A parallel staining without primary antibody (right) was conducted as a control. Blue arrows with solid line point to benign epithelial cells whereas red arrows with broken line indicate cancerous cells.
Tumor growth: To determine their tumorigenicity, AT6.1 cells were injected subcutaneously (1×10^5 cells) into 4-6 week old male nu/nu mice (NCI). […] Tumor sizes were calculated using formula V=π×h (h^23a^2)/6, a=(L((+))W)/4 (Nature, 405:354-359) and the Student's t-test (two-tailed) was performed to analyze statistical significance using the SPSS 10.0 software (SPSS Inc., Chicago, Ill.).

[4] = tested on: PC3 cells; test: Proliferation assay (cell numbers); format: cell-based, human; conditions: ectopic expression, stably transfected PC3 sublines, culture in 6-well plates 4-5 days
Description: The cell numbers of the parental PC3, empty pcDNA3.1 vector transfected PC3 sublines M1 and M2, and pcDNA3.1-TID-1 transfected PC3 sublines 27, 41, and 44 were counted after culture in 6-well plates for 4 days.
The cell numbers of the parental PC3, empty pCMV-Tag vector transfected PC3 sublines fM1 and fM2, and pCMV-Tag-fTID-1 transfected PC3 sublines f33, f17, and f23 were counted after culture in 6-well plates for 5 days. The proliferation and soft agar assays are described in Methods of Example 3 below.
Proliferation assay: Cells were plated onto 6-well plates in triplicate at 50,000 cells/well and cultured in RPMI 1640 medium supplemented with 10% fetal bovine serum (FBS), and 1% penicillin/streptomycin. The cells were trypsinized and counted each day afterwards for a five-day time course. The data were plotted using the GraphPad Prism software. The error bars represent SEM and they are difficult to see when SEM is very small. The cell proliferation assay was repeated 3 times and the results were very reproducible.

[5] = tested on: PC3 cells; test: Soft agar assay (anchorage-independent growth); format: cell-based, human; conditions: stable overexpression in PC3 sublines
Protocol: FIGS. 4A-4D show the effect of calreticulin overexpression on colony formation of PC3 cells in a soft agar assay, PC3 (FIG. 4A), Mock (FIG. 4B), Crt 35 (FIG. 4C) and Crt 59 (FIG. 4). The soft agar assay was conducted in 6-well plates. The bottom agar is 2 ml 0.6% noble agar containing 1×RPMI 1640 medium supplemented with 10% fetal bovine serum (FBS). After the preparation of bottom agar, 1 ml of 0.3% top agar containing 5,000 cells and 1×RPMI 1640 medium supplemented with 10% FBS was added to form the top layer. The assay for each PC3 subline was carried out in duplicate and was repeated at least 3 times.
Colonies with greater than 125 um in diameter were counted in the quantification. Error bars represent standard error means (SEM).
Soft agar assay: The soft agar assay was conducted in 6-well plates. The bottom agar is 2 ml 0.6% noble agar containing 1×RPMI 1640 medium supplemented with 10% FBS. After the preparation of bottom agar, 1 ml of 0.3% top agar containing 5,000 cells and 1×RPMI 1640 medium supplemented with 10% FBS was added to form the top layer. The assay for each PC3 subline was carried out in duplicate and was repeated at least 3 times.

[6] = tested on: ventral prostate; test: C3(I)-TID-1 transgenic mice; format: in vivo, mouse; conditions: transgenic vs non-transgenic littermates
Description: To study the role of TRAITS protein in the prostate in vivo, an expression vector, C3 (I)-TID-1, was generated that expresses TRAITS under the control of the prostate C3(I) promoter [Zhang et al., Prostate, 32:16-26 (1997)]. The C3(I) promoter is androgen-dependent and active only in the ventral prostate and testis. Two transgenic mouse lines were identified by PCR amplification of the tail genomic DNA using primers specific for the TRAITS transgene. […] The C3(I)-TID-1 transgenic mice are fertile.

[7] = tested on: human prostate cancer cell lines (LNCaP, PC3, DU145 and TSU), rat Dunning prostate tumor cell lines, NIH3T3 and Hela; test: Cell death after transient transfection of TRAITS expression vectors; format: cell-based
Description: as §2, §3
To further characterize the function of TRAITS, green fluorescent protein (GFP) was tagged to TRAITS at its N-terminal or C-terminal ends using pEGFP C1 and pEGFP N3 vector, respectively (Clontech). […]

[8] = tested on: CAT reporter gene expression; test: Mammalian two-hybrid analysis, CAT reporter assay in NIH3T3 cells; format: cell-based
Protocol: (§4) A non-specific complex (*) in the presence of GST-TRAITS was also formed in the presence of GST only. Labeled free DNA (F) was also indicated. […] NIH3T3 cells were transiently transfected with empty vector (PM) or vectors expressing the full-length rat TRAITS (residues 1-262 of SEQ ID NO:14), its N-terminal (residues 1-113 of SEQ ID NO:14), or its C-terminal (residues 114-262 of SEQ ID NO:14) plus pG5CAT reporter and pSV-β-gal for normalization. Assays were performed after 24 hours of transfection. The fold activation of CAT reporter is shown with S.E.M. Assays were performed in triplicate in two separate experiments.
CAT reporter assays: CAT activities were assayed 24 hours after transfection. NIH3T3 cells were grown in 6-well plates and transfected using Superfect (Qiagen). For transient transfection, 2 μg of PM constructions, 2 μg of pSVβ-gal (internal control) and 2 μg of pG5CAT (Clontech) were used per well. The level of CAT protein in cell extracts was determined using a CAT ELASA kit (Roche) according to the manufacturer. Protein concentration was measured using a Dc protein Assay kit (Bio-Rad). β-Galactosidase activity was measured by incubating with ONPG (o-nitrophenyl-β-D-galactopyranoside) solution. Data are reported as means ±S.E.M. of two separate experiments performed in triplicate.

[9] = tested on: LNCaP; test: Stable transfection of LNCaP with CMV-fTID-1; format: cell-based, human; conditions: two different experiments
Description: The CMV-fTID-1 expression vector was also transfected into LNCaP, an androgen-responsive human prostate cancer cell line [Horoszewicz et al., Cancer Research 43:1809-18 (1983)], in two different experiments. […] The expression of the endogenous TID-1 gene was also not detected in the rat Dunning tumor cell lines (FIGS. 10A-10B) and various human prostate cancer cell lines including LNCaP, PC3, DU145, and TSU cells. […] Stable expression was observed using a CMV promoter-based expression vector. Clonal variations of stably transfected cells can be minimized by assaying multiple, (e.g., three) independent stably transfected sublines.

[10] = tested on: DNA sequence ACTTTA (T-box); test: Electrophoretic mobility shift assay (EMSA); format: binding; conditions: competed by cold T-wt but not by cold T-mut
Protocol: as §4
Two oligonucleotides: T-wt: (5′-[…] GAAGCTTACGTCGCG-3′ SEQ ID NO:33) and T-mut: (5′-[…] CGAAGCTTACGTCGCG-3′ SEQ ID NO:34) were synthesized and amplified by PCR. T4 polynucleotide kinase (Promega) was used to label T-wt & T-mut by [γ-^32P] ATP (NEN). Recombinant GST-TRAITS fusion protein was incubated with 500 μg poly [dI-dC] and EMSA was performed according to the protocol provided by Gel Shift Assay System (Promega).

## EAF1: protein with sequence homology to TRAITS, SEQ ID NO:20; tested as GFP fusion
[1]; GFP fusion proteins from pEGFP N3, human and mouse
  cell death: cause cell death

## exon III: TRAITS fragment corresponding to amino acids 68-113 of SEQ ID NO:18, fused to GFP
[1]
  role of domain in apoptosis induction: both necessary and sufficient to induce apoptosis

## 4-hydroxytamoxifen [OHT]
[2]
  apoptotic cells (annexin V): 60.7%

## N-terminal region of TRAITS: approximately amino acids 1-113 of TID-1, fused to GFP
[1]
  cells expressing the GFP fusion protein: none of the cells were found to express the N-terminal fusion protein
  role of domain in apoptosis induction: necessary and sufficient for inducing apoptosis

## CC/C(=C(\c1ccccc1)c1ccc(OCCN(C)C)cc1)c1ccccc1 [tamoxifen]
[3]; tamoxifen administration, parallel experiments
  growth of xenograft tumors from parental or GFP-ER transfected AT6.1 cells: no detectable influence
[3]; tamoxifen pellets implanted at cell injection, p<0.005
  growth of xenograft tumors from AT6.1 sublines expressing GFP-TRAITS-ER: significantly inhibited

## TID-1: novel testosterone regulated apoptosis inducer and tumor suppressor; transcription factor, SEQ ID NOs:14 (rat), 16 (mouse), 18 (human)
[4]
  reduction in cell numbers: 2 fold
[5]
  colony formation in soft agar: inhibition of the size and number of colonies
[6]
  enhancement of epithelial cell number per unit area in the ventral prostate: 2-3 fold
[7]
  programmed cell death phenotype of transfected cells: efficiently induced chromatin condensation and cell death
[8]; 24 hours after transfection
  transactivation of CAT reporter gene expression: more than 40 fold

## fTID-1: FLAG tagged TID-1 protein expressed from pCMV-Tag-fTID-1
[9]
  recovery of clones expressing fTID-1: no LNCaP clones expressing fTID-1 were found
[4]
  reduction in cell numbers: 2 fold

## GST-TRAITS: E. coli-purified GST-TRAITS fusion protein
[10]
  binding to labeled T-box containing DNA: forms a DNA-protein complex

B1: C-terminal region: remaining approximately 147-149 amino acids of TID-1 containing the transactivation domain (protein)
chain: GEGSSKIQCRLEQQQQQMWNPPRTSNLVQHSPSEDKLSPTSLMDDIERELKAEASLMDQMSSCDSSSDSRSSSSSSSEDSSSDSEDDDRSSPSGPRRYSSEHPSVSAGPQYRTSDADTTCNRLYDNSALLMSTLRSDLQLSESDSDSED
[1]
  cells expressing the GFP fusion protein: many of the cells expressed the C-terminal fusion protein
  role of domain in apoptosis induction: not required for TRAITS to induce apoptosis
[8]; deletion of the N-terminal region
  transactivation relative to full-length (deletion mutagenesis): enhance the transactivation
